Assay results as given in patent US20250002475A1 (EPICS THERAPEUTICS, priority 2023, published 2025).

How the values were obtained:
Kasumi-1 cells = experiment: Kasumi-1 cellular viability assay (ATP-Lite, 72 h); type: cell-based; conditions: Homo sapiens, ATP-Lite luminescence, % viability relative to DMSO
How it was run: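 Viability was read by ATP-Lite One Step luminescence after 72 h compound treatment at 37 °C/5% CO2, normalised to DMSO control, with IC50 fitted from concentration-response. Cells were Kasumi-1 (AML FAB M2) at 15000 per well in RPMI-1640/10% FBS, 0.1% DMSO final.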

Caov-3 cells = experiment: Caov-3 cellular viability assay (ATP-Lite, 72 h); type: cell-based; conditions: Homo sapiens, ATP-Lite luminescence, % viability relative to DMSO
How it was run: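 IC50 values come from concentration-response fits of luminescent ATP content (ATP-Lite One Step), normalised as % viability versus DMSO. Compound exposure was 72 h at 37 °C in RPMI-1640/10% FBS with 0.1% final DMSO. Wells held 10000 cells each.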

[1] = biological target: T1, recombinant METTL3/METTL14 complex (Homo sapiens, UniProt Q86U44); experiment: METTL3/14 Scintillation Proximity Assay (SPA), RNA methyltransferase activity; type: biochemical; conditions: 5.31 nM METTL3/14 complex, 250 nM RNA substrate, 1 μM 3H-SAM, 90 min; for compounds marked * best of the two separated forms
T1 construct: purchased Active Motif 311970; host or cells: Sf9 cells
T1 sequence (Q86U44 whole entry): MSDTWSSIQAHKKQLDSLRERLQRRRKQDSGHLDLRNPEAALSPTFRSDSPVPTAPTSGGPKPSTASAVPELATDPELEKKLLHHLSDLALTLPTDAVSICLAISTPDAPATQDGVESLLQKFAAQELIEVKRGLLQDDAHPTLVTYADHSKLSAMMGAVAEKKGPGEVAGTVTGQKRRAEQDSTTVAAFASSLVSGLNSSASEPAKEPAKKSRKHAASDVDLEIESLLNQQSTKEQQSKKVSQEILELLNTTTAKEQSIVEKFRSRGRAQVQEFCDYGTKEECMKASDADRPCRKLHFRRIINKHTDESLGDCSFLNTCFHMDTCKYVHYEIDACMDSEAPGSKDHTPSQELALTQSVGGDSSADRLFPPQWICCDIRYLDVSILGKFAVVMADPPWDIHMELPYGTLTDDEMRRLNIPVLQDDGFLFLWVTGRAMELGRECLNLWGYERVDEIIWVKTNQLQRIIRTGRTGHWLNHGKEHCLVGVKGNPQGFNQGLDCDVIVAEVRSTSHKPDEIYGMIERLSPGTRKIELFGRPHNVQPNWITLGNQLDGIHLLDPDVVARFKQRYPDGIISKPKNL
T1 sequence (Q9HCE5 whole entry partner): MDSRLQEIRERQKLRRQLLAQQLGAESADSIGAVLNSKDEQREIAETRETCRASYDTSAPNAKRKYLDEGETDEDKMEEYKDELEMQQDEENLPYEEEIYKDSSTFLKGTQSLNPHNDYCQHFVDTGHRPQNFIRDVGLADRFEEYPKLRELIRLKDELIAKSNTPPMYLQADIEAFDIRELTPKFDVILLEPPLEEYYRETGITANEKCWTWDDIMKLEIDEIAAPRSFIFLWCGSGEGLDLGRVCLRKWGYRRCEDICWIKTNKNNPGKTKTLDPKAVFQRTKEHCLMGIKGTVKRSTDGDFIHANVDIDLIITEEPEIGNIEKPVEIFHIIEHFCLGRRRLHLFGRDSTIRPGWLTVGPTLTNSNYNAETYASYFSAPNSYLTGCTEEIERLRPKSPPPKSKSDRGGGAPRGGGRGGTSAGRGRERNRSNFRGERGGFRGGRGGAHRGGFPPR

IC50 [1] [nM]	SMILES	IC50 (Kasumi-1 cells) [nM]	IC50 (Caov-3 cells) [nM]
≤ 50	CC(n1cc(-c2cncc(C3CC3)c2)nn1)n1ccc(N2CCC[C@@H](NCC3CC3)C2)cc1=O (stereo partly drawn) [Compound 320, 4-((R)-3-((cyclopropylmethyl)amino)piperidin-1-yl)-1-(1-(4-(5-cyclopropylpyridin-3-yl)-1H-1,2,3-triazol-1-yl)ethyl)pyridin-2(1H)-one]	≤ 500	≤ 500
≤ 50	O=C(Nc1cc(=O)n2ccccc2n1)C1(c2ccc(N3CCC[C@@H](NCC4CC4)C3)nc2)COC1 [Compound 321, (R)-3-(6-(3-((cyclopropylmethyl)amino)piperidin-1-yl)pyridin-3-yl)-N-(4-oxo-4H-pyrido[1,2-a]pyrimidin-2-yl)oxetane-3-carboxamide]	500 to 5000	500 to 5000
≤ 50	O=C(Nc1cc(=O)n2ccccc2n1)C1(c2ccc(N3CCC[C@@H](NCC4CCC4)C3)nc2)COC1 [Compound 322, (R)-3-(6-(3-((cyclobutylmethyl)amino)piperidin-1-yl)pyridin-3-yl)-N-(4-oxo-4H-pyrido[1,2-a]pyrimidin-2-yl)oxetane-3-carboxamide]	500 to 5000	500 to 5000
≤ 50	c1cc(C2(n3cc(-c4cncc(C5CC5)n4)nn3)COC2)ncc1N1CCC[C@@H](NCC2CC2)C1 [Compound 323, (R)-N-(cyclopropylmethyl)-1-(6-(3-(4-(6-cyclopropylpyrazin-2-yl)-1H-1,2,3-triazol-1-yl)oxetan-3-yl)pyridin-3-yl)piperidin-3-amine]	≤ 500	≤ 500
≤ 50	O=C(Nc1cncc(N2CCCC2)n1)C1(c2ccc(N3CCC[C@@H](NCC4CC4)C3)nc2)COC1 [Compound 324, (R)-3-(6-(3-((cyclopropylmethyl)amino)piperidin-1-yl)pyridin-3-yl)-N-(6-(pyrrolidin-1-yl)pyrazin-2-yl)oxetane-3-carboxamide]	≤ 500	≤ 500
≤ 50	O=C(Nc1cc(=O)n2ccccc2n1)C1(c2ccc(N3CCC[C@@H](NCC4CCCC4)C3)cn2)COC1 [Compound 325, (R)-3-(5-(3-((cyclopentylmethyl)amino)piperidin-1-yl)pyridin-2-yl)-N-(4-oxo-4H-pyrido[1,2-a]pyrimidin-2-yl)oxetane-3-carboxamide]	500 to 5000	≤ 500
≤ 50	O=C(Nc1cc(=O)n2ccccc2n1)C1(c2ccc(N3CCC[C@@H](NC4CCCC4)C3)cn2)COC1 [Compound 326, (R)-3-(5-(3-(cyclopentylamino)piperidin-1-yl)pyridin-2-yl)-N-(4-oxo-4H-pyrido[1,2-a]pyrimidin-2-yl)oxetane-3-carboxamide]	500 to 5000	≤ 500
≤ 50	O=C(Nc1cc(=O)n2ccccc2n1)C1(c2ccc(N3CCC[C@@H](NC4CCC4)C3)cn2)COC1 [Compound 327, (R)-3-(5-(3-(cyclobutylamino)piperidin-1-yl)pyridin-2-yl)-N-(4-oxo-4H-pyrido[1,2-a]pyrimidin-2-yl)oxetane-3-carboxamide]	500 to 5000	500 to 5000
≤ 50	O=C(Nc1cc(=O)n2ccccc2n1)C1(c2ccc(N3CCC[C@@H](NCC4(C(F)(F)F)CC4)C3)cn2)COC1 [Compound 328, (R)-N-(4-oxo-4H-pyrido[1,2-a]pyrimidin-2-yl)-3-(5-(3-(((1-(trifluoromethyl)cyclopropyl)methyl)amino)piperidin-1-yl)pyridin-2-yl)oxetane-3-carboxamide]	500 to 5000	≤ 500
≤ 50	CC(C)CN[C@@H]1CCCN(c2ccc(C3(n4cc(-c5cncc(C6CC6)c5)nn4)COC3)nc2)C1 [Compound 329, (R)-1-(6-(3-(4-(5-cyclopropylpyridin-3-yl)-1H-1,2,3-triazol-1-yl)oxetan-3-yl)pyridin-3-yl)-N-isobutylpiperidin-3-amine]	≤ 500	≤ 500
≤ 50	O=C(Nc1cc(=O)n2ccccc2n1)C1(c2ccc(N3CCC[C@@H](NCC4(F)CC4)C3)cn2)COC1 [Compound 330, (R)-3-(5-(3-(((1-fluorocyclopropyl)methyl)amino)piperidin-1-yl)pyridin-2-yl)-N-(4-oxo-4H-pyrido[1,2-a]pyrimidin-2-yl)oxetane-3-carboxamide]	500 to 5000	500 to 5000
≤ 50	CC1(CN[C@@H]2CCCN(c3ccc(C4(C(=O)Nc5cc(=O)n6ccccc6n5)COC4)nc3)C2)CC1 [Compound 331, (R)-3-(5-(3-(((1-methylcyclopropyl)methyl)amino)piperidin-1-yl)pyridin-2-yl)-N-(4-oxo-4H-pyrido[1,2-a]pyrimidin-2-yl)oxetane-3-carboxamide]	≤ 500	≤ 500
≤ 50	FC1(CN[C@@H]2CCCN(c3ccc(C4(n5cc(-c6cncc(C7CC7)c6)nn5)COC4)nc3)C2)CC1 [Compound 332, (R)-1-(6-(3-(4-(5-cyclopropylpyridin-3-yl)-1H-1,2,3-triazol-1-yl)oxetan-3-yl)pyridin-3-yl)-N-((1-fluorocyclopropyl)methyl)piperidin-3-amine]	≤ 500	≤ 500
≤ 50	CC1(CN[C@@H]2CCCN(c3ccc(C4(n5cc(-c6cncc(C7CC7)c6)nn5)COC4)nc3)C2)CC1 [Compound 333, (R)-1-(6-(3-(4-(5-cyclopropylpyridin-3-yl)-1H-1,2,3-triazol-1-yl)oxetan-3-yl)pyridin-3-yl)-N-((1-methylcyclopropyl)methyl)piperidin-3-amine]	≤ 500	≤ 500
≤ 50	c1ncc(C2CC2)cc1-c1cn(C2(c3ccc(N4CCC[C@@H](NC5CCC5)C4)cn3)COC2)nn1 [Compound 334, (R)-N-cyclobutyl-1-(6-(3-(4-(5-cyclopropylpyridin-3-yl)-1H-1,2,3-triazol-1-yl)oxetan-3-yl)pyridin-3-yl)piperidin-3-amine]	≤ 500	≤ 500
≤ 50	FC(F)(F)C1(CN[C@@H]2CCCN(c3ccc(C4(n5cc(-c6cncc(C7CC7)c6)nn5)COC4)nc3)C2)CC1 [Compound 335, (R)-1-(6-(3-(4-(5-cyclopropylpyridin-3-yl)-1H-1,2,3-triazol-1-yl)oxetan-3-yl)pyridin-3-yl)-N-((1-(trifluoromethyl)cyclopropyl)methyl)piperidin-3-amine]	500 to 5000	≤ 500
≤ 50	O=C(Nc1cc(=O)n2ccccc2n1)C1(c2ccc(N3CCC[C@@H](NCC4(C(F)(F)F)CCC4)C3)cn2)COC1 [Compound 337, (R)-N-(4-oxo-4H-pyrido[1,2-a]pyrimidin-2-yl)-3-(5-(3-(((1-(trifluoromethyl)cyclobutyl)methyl)amino)piperidin-1-yl)pyridin-2-yl)oxetane-3-carboxamide]	500 to 5000	≤ 500
≤ 50	O=C(Nc1cc(=O)n2ccccc2n1)C1(c2ccc(N3CCC[C@@H](NCC4CC(F)(F)C4)C3)cn2)COC1 [Compound 338, (R)-3-(5-(3-(((3,3-difluorocyclobutyl)methyl)amino)piperidin-1-yl)pyridin-2-yl)-N-(4-oxo-4H-pyrido[1,2-a]pyrimidin-2-yl)oxetane-3-carboxamide]	≤ 500	≤ 500
≤ 50	FC(F)(F)C1(CN[C@@H]2CCCN(c3ccc(C4(n5cc(-c6cncc(C7CC7)c6)nn5)COC4)nc3)C2)CCC1 [Compound 339, (R)-1-(6-(3-(4-(5-cyclopropylpyridin-3-yl)-1H-1,2,3-triazol-1-yl)oxetan-3-yl)pyridin-3-yl)-N-((1-(trifluoromethyl)cyclobutyl)methyl)piperidin-3-amine]	500 to 5000	≤ 500
≤ 50	FC1(F)CC(CN[C@@H]2CCCN(c3ccc(C4(n5cc(-c6cncc(C7CC7)c6)nn5)COC4)nc3)C2)C1 [Compound 341, (R)-1-(6-(3-(4-(5-cyclopropylpyridin-3-yl)-1H-1,2,3-triazol-1-yl)oxetan-3-yl)pyridin-3-yl)-N-((3,3-difluorocyclobutyl)methyl)piperidin-3-amine]	≤ 500	≤ 500
≤ 50	c1nnc(-c2cn(C3(c4ccc(N5CCC[C@@H](NCC6CC6)C5)cn4)COC3)nn2)cc1C1CC1 [Compound 343, (R)-N-(cyclopropylmethyl)-1-(6-(3-(4-(5-cyclopropylpyridazin-3-yl)-1H-1,2,3-triazol-1-yl)oxetan-3-yl)pyridin-3-yl)piperdin-3-amine]	500 to 5000	≤ 500
50 to 500	c1ncc(C2CC2)cc1-c1nnc(C2(c3ccc(N4CCC[C@@H](NCC5CC5)C4)cn3)COC2)o1 [Compound 344, (R)-N-(cyclopropylmethyl)-1-(6-(3-(5-(5-cyclopropylpyridin-3-yl)-1,3,4-oxadiazol-2-yl)oxetan-3-yl)pyridin-3-yl)piperidin-3-amine]	500 to 5000	> 5000
≤ 50	CC#Cc1cncc(-c2cn(C3(c4ccc(N5CCC[C@@H](NCC6CC6)C5)cn4)COC3)nn2)c1 [Compound 345, (R)-N-(cyclopropylmethyl)-1-(6-(3-(4-(5-(prop-1-vn-1-yl)pyridin-3-yl)-1H-1,2,3-triazol-1-yl)oxetan-3-yl)pyridin-3-yl)piperidin-3-amine]	≤ 500	≤ 500
